SMILES strings stand for the structures.

These results are taken from patent EP1853270B1, “PHARMACEUTICAL COMPOSITIONS COMPRISING NEP-INHIBITORS, INHIBITORS OF THE ENDOGENOUS ENDOTHELIN PRODUCING SYSTEM AND DIURETICS” (Solvay Pharmaceuticals GmbH, priority 2005, dated 2006).

For this assay, the system named is spontaneously hypertensive rat. The experiment in a line: Telemetric monitoring of blood pressure and heart rate in spontaneously hypertensive rats, compounds given via drinking water. The format is in vivo. The note with it: male SHR; for DBP: group mean change of 24 h mean diastolic blood pressure; for DBP / HR / SBP: day 23 (3 weeks of treatment) minus baseline (day 3), via drinking water, intended 10 mg/kg/day hydrochlorothiazide and/or 100 mg/kg/day daglutril, n=5 per group; for HR: group mean change of 24 h mean heart rate; for SBP: group mean change of 24 h mean systolic blood pressure; for effect on blood pressure: result in words, 3 weeks of treatment via drinking water, difference between groups significant (ANOVA, at least P<0.01). An excerpt:
Male spontaneously hypertensive rats (= SHR, insulin resistant strain from Charles River; aged 6 months) were equipped with telemetry transmitters for continuous monitoring of blood pressure and heart rate (TA11PA-C40. DSI, USA). Telemetry transmitters for continuous monitoring of blood pressure, heart rate and locomotor activity (TA11PA-C40, Data Sciences, USA) were implanted intraabdominally under inhalative halothane anesthesia. A midline abdominal incision was made, and the abdominal aorta was visualized by removal of retroperitoneal fat and connective tissue. A ligature was placed caudal of the renal arteries, the aorta was punctured with a 22G needle, and the catheter was advanced into the aorta. The entry point was sealed with tissue adhesive (Vetbond, 3M, USA), the ligature was removed, and the abdominal incision was closed. Measurements of aortic pressure were taken every 5 minutes (= min) for 4 seconds (= s) each at a sampling rate of 500 Hz, and were corrected for the corresponding ambient pressure (ambient pressure monitor, C11 PR, Data Sciences, USA).
After 3 days of monitoring under baseline (untreated) conditions, animals received daglutril via the drinking water. The intended daily dose was 100 mg/kg/day of daglutril.
In a second experiment, rats were divided into two treatment groups receiving hydrochlorothiazide or hydrochlorothiazide + daglutril. Compounds were administered via the drinking water, and daily drug intake was measured by weighing the water bottles thrice weekly. Intended daily doses were 10 mg/kg/day of hydrochlorothiazide plus, in the combination group, 100 mg/kg/day of daglutril.
Concentrations of hydrochlorothiazide and daglutril in the drinking water were adjusted once per week, in order to ensure the intended daily intake of 10 and 100 mg/kg, respectively.
The blood pressure, heart rate and activity values, sampled in 5 min intervals by the Dataquest™ system, were used for calculation of individual 24 hours (= h) -means. These 24 h means were exported to Excel, and group mean values of systolic blood pressure (= SBP), diastolic blood pressure (= DBP), heart rate (= HR), and locomotor activity (= ACT) were calculated for the daglutril, hydrochlorothiazide and the hydrochlorothiazide + daglutril groups. For the statistical analysis, a baseline value (pre) was calculated from the last day prior to compound application (day 3), and effects of daglutril, hydrochlorothiazide and hydrochlorothiazide + daglutril were calculated in relation to this baseline value (day 23, i.e. after 3 weeks of treatment, minus baseline value). The statistical comparison was done by using univariate ANOVA at an error level of P<0.05.

Consider `NS(=O)(=O)c1cc2c(cc1Cl)NCNS2(=O)=O` [HCTZ, hydrochlorothiazide], for which the DBP is reported as -7.7 mmHg, the HR was -4.5 min⁻¹, the SBP is recorded as -11.3 mmHg and the “effect on blood pressure” value is on record as “moderate decrease in blood pressure”.

As to `CCOC(=O)[C@H](CCc1ccccc1)CC1(C(=O)N[C@H]2CCc3ccccc3N(CC(=O)O)C2=O)CCCC1` [daglutril], the DBP was found to be 2.0 mmHg, the HR was -6.0 min⁻¹, the SBP is -0.3 mmHg and the “effect on blood pressure” value was “no effect on blood pressure”.
